Experiments:
Type in all cases: cell-based
[1] = system: HL60 cells; assay: Cell viability assay (CellTiter-Blue), HL60; settings: Homo sapiens, HL-60, 48 h incubation, mean±SD, read-out: IC50 against HL60 cells
Procedure: (§1) Cell viability was determined using the CellTiter®-Blue Cell Viability Assay kit (Promega, Madison, WI, USA) as previously described (Alkhatabi et al., 2022). Approximately 10^4 cells were counted, plated in a 96-well plate in the presence of test compounds ranging from 0.01 to 40 μM in quadruplicate, and incubated for 48 h at 37° C. in a humidified incubator. After the incubation period was completed, 20 μL of CellTiter®-Blue Cell Viability Assay reagent was added to each well and incubated for an additional 2 h for fluorescence development. Florescence was measured at Ex/Em 540/590 on a SpectraMax® i3 Multi-Mode microplate reader (Molecular Devices, LLC, San Jose, CA, USA) and plotted against the drug concentration to determine the IC50 of the test compounds. The IC50 was obtained by a nonlinear regression model using GraphPad Prism 10.1.1 (GraphPad Software, Inc., USA).
(§2) The half-maximal inhibitory concentration (IC50) of each drug was calculated using the GraphPad Prism software version 10.1.1. Flow cytometric data were analyzed using Diva software provided with the BD FACSCanto II Clinical Flow Cytometry System (BD Biosciences, USA). Student's paired t-test and Two-way ANOVA were used to compare data points. Data are presented as mean+SD, and at least three independent experiments were performed. […]

[2] = system: MV4-11 cells; assay: Cell viability assay (CellTiter-Blue), MV4-11; settings: Homo sapiens, 48 h incubation, mean±SD, read-out: IC50 against MV4-11 cells
Procedure: as §1, §2

[3] = system: KG1a cells; assay: Cell viability assay (CellTiter-Blue), KG1a; settings: Homo sapiens, KG-1a, 48 h incubation, mean±SD, read-out: IC50 against KG1a cells
Procedure: as §1, §2

[4] = system: K562 cells; assay: Cell viability assay (CellTiter-Blue), K562; settings: Homo sapiens, 48 h incubation, mean±SD, read-out: IC50 against K562 cells
Procedure: as §1, §2

Measured: IC50

O=C(Cc1ccc(/N=C2\OC(=O)c3ccccc32)cn1)NCc1ccccc1 [Compound II, (Z)-N-benzyl-2-(5-((3-oxoisobenzofuran-1 (3H)-ylidene)amino)pyridin-2-yl) acetamide]
> 10 µM: all assays above

O=C(Cc1ccc(NC(=O)c2ccccc2O)cn1)NCc1ccccc1 [Compound III, N-(6-(2-(Benzylamino)-2-oxoethyl)pyridin-3-yl)-2-hydroxybenzamide]
> 10 µM: all assays above

Source: patent US12285418B1, “2-(5-aminopyridin-2-yl)-N-benzylacetamides and use thereof in the treatment of acute myeloid leukemia” (University of Jeddah, priority 2024, dated 2025)
